Laboratory results reported in PMC5983544, “Muscarinic M5 receptors modulate ethanol seeking in rats” (Neuropsychopharmacology, 2018).

Columns and labels:
[1] = system: ethanol-preferring (iP) rats; test: Ethanol self-administration after bilateral microinjection into dorsomedial (DM) striatum; type: in vivo, rat; settings: intra-DM striatum
Source text: (§1) Male iP rats (n = 14) were trained to self-administer 10% (v/v) ethanol via lever presses under FR3 operant conditions for approximately 12 weeks, in the presence of a 1-s light conditioned stimulus (CS+) occurring when the ethanol solution was delivered and an olfactory cue (S+ cue; one drop of vanilla essence, placed directly below the ethanol-paired (active) lever), as previously described, followed by surgery and testing. […] Rats were then given 7 days of ethanol self-administration before receiving the alternate treatment in a counterbalanced manner. For full details refer to Supplementary material.
(§2) Microinjections were performed as previously described; for full details see Supplementary material.
There was a main effect of lever (F(1, 15) = 59.4, P < 0.0001) but no effect of treatment (F(1, 15) = 0.22, P = 0.65) (Fig. 5b).

[2] = system: ethanol-preferring (iP) rats; test: Ethanol self-administration after bilateral microinjection into dorsolateral (DL) striatum; type: in vivo, rat; settings: intra-DL striatum
Source text: as §1, §2

| SMILES | responding for ethanol vs vehicle ([1]; 165 pmol/hemisphere, P = 0.99) | responding for ethanol vs vehicle ([2]; 165 pmol/hemisphere, P = 0.82) | ethanol responding vs vehicle ([1]; 5.53 nmol/hemisphere) | ethanol responding vs vehicle ([2]; 5.53 nmol/side, P = 0.0003) | responding for water vs vehicle ([2]; 5.53 nmol/side, P = 0.96) |
| --- | --- | --- | --- | --- | --- |
| CCN(Cc1ccccc1C(F)(F)F)C(=O)C1CCN(S(=O)(=O)c2ccc3[nH]ncc3c2)CC1 [ML380, 1-((1H-indazol-5-yl)sulfoneyl)-N-ethyl-N-(2-(trifluoromethyl)benzyl)piperidine-4-carboxamide] | no effect | no effect |  |  |  |
| c1cnc2cc3c(cc2n1)[C@@H]1CNC[C@H]3C1 [varenicline] |  |  | did not affect ethanol responding | significantly reduced ethanol responding | no difference |
